Assay [1] has as its target hA2b/CHO (Homo sapiens (Human), UniProt P29275). Briefly: cAMP inhibition assay in hA2b/CHO cells, 10 μM adenosine.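 Further: cells exposed to compound 30 min at 37 °C, then stimulated with adenosine a further 30 min, cAMP read after 60 min at room temperature.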 It is filed as cell-based. The note with it: read-out: cAMP & FLIPR IC50 (nM) hA2b.
Experimental: (§1) hA2a/CHO, hA2b/CHO, hA3/CHO and mA2a/CHO (Genscript) were plated at 5×10^3 cells/well into 384-well polystyrene plates at the day of experiment. Compounds were pre-incubated with cells for 30 min at 37° C., 5% CO2. Then 10 μM adenosine was added to the cells and incubated for 30 min at 37° C., 5% CO2. Detection reagent (CISBIO) was added and the plates were incubated for 60 min at room temperature. The signal was captured by Envision.
For assay [2], the target named is mA2a/CHO (Mus musculus (Mouse), UniProt Q60613). Briefly: cAMP inhibition assay in mA2a/CHO cells, 10 μM adenosine.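 Further: compounds preincubated 30 min at 37 °C before the adenosine challenge, then 30 min further stimulation, readout after 60 min detection reagent incubation at room temperature in 384-well plates.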 It is filed as cell-based. The following applies: read-out: cAMP & FLIPR IC50 (nM) mA2a.
mA2a/CHO, sequence (Q60613 whole entry): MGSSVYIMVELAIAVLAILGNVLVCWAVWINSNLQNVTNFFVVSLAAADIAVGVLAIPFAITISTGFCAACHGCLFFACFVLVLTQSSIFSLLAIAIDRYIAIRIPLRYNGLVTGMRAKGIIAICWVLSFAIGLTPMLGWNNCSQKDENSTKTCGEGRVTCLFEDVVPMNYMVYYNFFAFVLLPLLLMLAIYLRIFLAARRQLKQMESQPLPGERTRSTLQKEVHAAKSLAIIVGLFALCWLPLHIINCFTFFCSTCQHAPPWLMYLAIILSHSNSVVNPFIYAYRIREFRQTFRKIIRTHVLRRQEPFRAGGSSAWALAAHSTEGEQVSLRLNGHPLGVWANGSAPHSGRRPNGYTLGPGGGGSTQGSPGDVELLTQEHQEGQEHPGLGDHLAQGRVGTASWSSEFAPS
Experimental: as §1
Assay [3] addresses hADORA1/CHO (hA1 expressing) cells (Homo sapiens (Human), UniProt P30542). Briefly: cell-based. The note with it: FLIPR inhibition, 10 μM adenosine, read-out: cAMP & FLIPR IC50 (nM) hA1.
Experimental: hADORA1/CHO (hA1 expressing) cells (Genscript) were plated at 1×10^4 cells/well into 384-well polystyrene plates one day before starting the experiment. On the day of experiment, the supernatant was discard and replaced with 40 μL of dye (FLIPR calcium 5 Assay Kit) per well and the plates were incubated for 60 mins at 37° C. plus 5% CO2. Then testing compounds were added at different concentrations for FLIPR™ inhibition assay. After a 400s incubation with compound, 10 μM adenosine was added into the cells, and the signal was captured by FLIPR.
The target in assay [4] is hA2a/CHO (Homo sapiens (Human), UniProt P29274). Kind of assay: cAMP inhibition assay in hA2a/CHO cells, 10 μM adenosine.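 Further: compounds added to cells 30 min ahead of adenosine, then a further 30 min at 37 °C with adenosine before cAMP detection.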 It is filed as cell-based. The note with it: read-out: cAMP & FLIPR IC50 (nM) hA2a.
hA2a/CHO, sequence (P29274 whole entry): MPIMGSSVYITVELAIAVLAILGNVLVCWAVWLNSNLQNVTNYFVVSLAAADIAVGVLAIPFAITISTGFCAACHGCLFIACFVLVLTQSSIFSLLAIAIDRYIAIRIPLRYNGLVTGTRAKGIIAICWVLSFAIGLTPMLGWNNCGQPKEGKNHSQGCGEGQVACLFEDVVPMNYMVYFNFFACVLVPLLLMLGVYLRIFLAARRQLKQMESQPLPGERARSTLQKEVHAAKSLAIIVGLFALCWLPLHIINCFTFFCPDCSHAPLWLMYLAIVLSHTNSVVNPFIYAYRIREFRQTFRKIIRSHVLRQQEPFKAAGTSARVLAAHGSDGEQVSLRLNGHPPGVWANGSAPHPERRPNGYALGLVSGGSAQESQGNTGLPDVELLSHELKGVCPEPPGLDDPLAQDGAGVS
Experimental: as §1

Structures are written as SMILES.

Broadly, the IC50 is the concentration at which inhibition is half-maximal.

hA2b/CHO, sequence (P29275 whole entry): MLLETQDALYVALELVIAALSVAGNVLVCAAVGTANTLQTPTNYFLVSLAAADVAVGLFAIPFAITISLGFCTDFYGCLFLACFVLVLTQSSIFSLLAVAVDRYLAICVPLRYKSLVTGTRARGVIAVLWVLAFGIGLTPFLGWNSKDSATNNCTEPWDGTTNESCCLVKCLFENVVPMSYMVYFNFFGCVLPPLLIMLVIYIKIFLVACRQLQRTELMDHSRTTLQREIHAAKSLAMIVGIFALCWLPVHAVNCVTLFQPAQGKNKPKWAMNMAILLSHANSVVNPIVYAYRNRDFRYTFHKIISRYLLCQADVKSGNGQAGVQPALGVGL
hADORA1/CHO (hA1 expressing) cells, sequence (P30542 whole entry): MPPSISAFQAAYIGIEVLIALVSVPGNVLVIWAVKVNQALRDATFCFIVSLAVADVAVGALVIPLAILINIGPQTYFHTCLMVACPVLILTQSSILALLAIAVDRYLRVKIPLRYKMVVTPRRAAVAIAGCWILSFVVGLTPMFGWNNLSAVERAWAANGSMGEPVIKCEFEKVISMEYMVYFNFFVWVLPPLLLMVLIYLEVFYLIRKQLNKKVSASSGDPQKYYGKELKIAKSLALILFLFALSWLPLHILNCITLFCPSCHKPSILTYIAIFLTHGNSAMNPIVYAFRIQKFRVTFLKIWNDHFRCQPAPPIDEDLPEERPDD

Regarding `Cc1cnc2ccc(-c3nc(C(=O)NC[C@H]4CCCN4C)c(N)nc3-c3ccc(F)cc3)cn12` [Example 138, 3-amino-5-(4-fluorophenyl)-6-[3-methylimidazo[1,2-a]pyridin-6-yl]-N-[[(2R)-1-methylpyrrolidin-2-yl]methyl]pyrazine-2-carboxamide], the IC50 in assay [1] stood at 959 nM; in assay [2], 70 nM.

For the compound `Cc1cnc2ccc(-c3nc(C(=O)NCC4CCCN4C)c(N)nc3-c3ncco3)cn12` (single isomer, unassigned) [Example 121], the IC50 in assay [1] stood at 747 nM; in assay [2], 204 nM.

In the case of `Cc1cnc2ccc(-c3nc(C(=O)NCC4CCCN4C)c(N)nc3-c3ncco3)cn12` (single isomer, unassigned) [Example 120], the IC50 came out at 775 nM in assay [1] and 167 nM in assay [2].

With `Cc1cnc2ccc(-c3nc(C(=O)NCC4CC(C)(C)O4)c(N)nc3-c3ncco3)cn12` (single isomer, unassigned; isomer 2) [Example 270, 3-amino-N-((4,4-dimethyloxetan-2-yl)methyl)-6-(3-methylimidazo[1,2-a]pyridin-6-yl)-5-(oxazol-2-yl)pyrazine-2-carboxamide (isomer 2)], the IC50 in assay [3] is 300 nM; in assay [4], 7.4 nM.

Regarding `Cc1cnc2ccc(-c3nc(C(=O)NCC4CCN(C)C4=O)c(N)nc3-c3ccc(F)cc3)cn12` (single isomer, unassigned; isomer 1) [Example 267, 3-amino-5-(4-fluorophenyl)-N-((1-methyl-2-oxopyrrolidin-3-yl)methyl)-6-(3-methylimidazo[1,2-a]pyridin-6-yl) pyrazine-2-carboxamide (isomer 1)], the IC50 came to 2.8 nM in assay [3] and 0.9 nM in assay [4].

With `Cc1cnc2ccc(-c3nc(C(=O)NCc4cccc(N5CCC(N(C)C)C5)n4)c(N)nc3-c3ncco3)cn12` (single isomer, unassigned) [Cmpd. 232, 3-amino-N-((6-(3-(dimethylamino)pyrrolidin-1-yl)pyridin-2-yl)methyl)-6-(3-methylimidazo[1,2-a]pyridin-6-yl)-5-(oxazol-2-yl)pyrazine-2-carboxamide], the IC50 in assay [3] came out at 1500 nM; in assay [4], 0.5 nM.

`Cc1cnc2ccc(-c3nc(C(=O)NC[C@H]4CC(C)(C)CN4C)c(N)nc3-c3ncco3)cn12` (single isomer, unassigned; isomer 2) [Example 230, 3-amino-6-(3-methylimidazo[1,2-a]pyridin-6-yl)-5-(oxazol-2-yl)-N-((1,4,4-trimethylpyrrolidin-2-yl)methyl) pyrazine-2-carboxamide (isomer 2)]: the half-inhibitory concentration (IC50) in assay [3] worked out at 6000 nM; in assay [4], 15 nM.

For the compound `Cc1cnc2ccc(-c3nc(CNC(=O)[C@@H]4CCOC4)c(N)nc3-c3ccc(F)cc3)cn12` [Example 275, (R)-N-((3-amino-5-(4-fluorophenyl)-6-(3-methylimidazo[1,2-a]pyridin-6-yl)pyrazin-2-yl)methyl)tetrahydrofuran-3-carboxamide], the values for the IC50 in assay [3] and in assay [4] were 39 nM and 6.1 nM, respectively.

Turning to `Cc1cnc2ccc(-c3nc(C(=O)N[C@H]4CCOC4)c(N)nc3-c3ncco3)cn12` [Example 277, (S)-3-amino-6-(3-methylimidazo[1,2-a]pyridin-6-yl)-5-(oxazol-2-yl)-N-(tetrahydrofuran-3-yl)pyrazine-2-carboxamide], the figures for the IC50 in assay [3] and in assay [4] were 6560 nM and 12 nM, respectively.

On to `Cc1cnc2ccc(-c3nc(C(=O)NCC4CCN(C)C4=O)c(N)nc3-c3ccc(F)cc3)cn12` (single isomer, unassigned; isomer 2) [Example 256, 3-amino-5-(4-fluorophenyl)-N-((1-methyl-2-oxopyrrolidin-3-yl)methyl)-6-(3-methylimidazo[1,2-a]pyridin-6-yl) pyrazine-2-carboxamide (isomer 2)], for which the IC50 in assay [3] worked out at 34 nM; in assay [4], 1.8 nM.

On to `Cc1cc(-c2nc(C(=O)NCc3ccccc3OC(F)(F)F)c(N)nc2-c2ccc(F)cc2)cc(C)n1` [Example 65, 3-amino-6-(2,6-dimethylpyridin-4-yl)-5-(4-fluorophenyl)-N-(2-(trifluoromethoxy)benzyl)pyrazine-2-carboxamide], for which the IC50 in assay [4] turned out to be 19 nM; in assay [2], 50 nM.

As for `Cc1cnc2ccc(-c3nc(C(=O)NC(C)C4CCCO4)c(N)nc3-c3ncco3)cn12` (single isomer, unassigned; isomer 4) [Example 258, 3-amino-6-(3-methylimidazo[1,2-a]pyridin-6-yl)-5-(oxazol-2-yl)-N-(1-(tetrahydrofuran-2-yl)ethyl)pyrazine-2-carboxamide (isomer 4)], the 50% inhibitory concentration (IC50) in assay [3] amounted to 2510 nM; in assay [4], 8.1 nM.

Regarding `Cc1cnc2ccc(-c3nc(C(=O)NCC(C4CC4)N(C)C)c(N)nc3-c3ncco3)cn12` (single isomer, unassigned; isomer 2) [Example 269, 3-amino-N-(2-cyclopropyl-2-(dimethylamino)ethyl)-6-(3-methylimidazo[1,2-a]pyridin-6-yl)-5-(oxazol-2-yl) pyrazine-2-carboxamide (isomer 2)], the results for the IC50 in assay [3] and in assay [4] were above 10000 nM and 37 nM, respectively.

With `Cc1cnc2ccc(-c3nc(C(=O)N[C@@H]4CCOC4)c(N)nc3-c3ncco3)cn12` [Example 255, (R)-3-amino-6-(3-methylimidazo [1,2-a]pyridin-6-yl)-5-(oxazol-2-yl)-N-(tetrahydrofuran-3-yl)pyrazine-2-carboxamide], the IC50 in assay [3] was found to be 6850 nM; in assay [4] it was 20 nM.

On to `Cc1cnc2ccc(-c3nc(C(=O)NCC4CCOCC4)c(N)nc3-c3ncco3)cn12` [Example 239, 3-amino-6-(3-methylimidazo[1,2-a]pyridin-6-yl)-5-(oxazol-2-yl)-N-((tetrahydro-2H-pyran-4-yl)methyl) pyrazine-2-carboxamide], for which the half-maximal inhibitory concentration (IC50) came to 2960 nM in assay [3] and 4.8 nM in assay [4].

Take `Cc1cnc2ccc(-c3nc(CNC(=O)[C@H]4CCOC4)c(N)nc3-c3ccc(F)cc3)cn12` [Example 264, (S)-N-((3-amino-5-(4-fluorophenyl)-6-(3-methylimidazo[1,2-a]pyridin-6-yl)pyrazin-2-yl)methyl)tetrahydrofuran-3-carboxamide]: the results for the IC50 in assay [3] and in assay [4] were 84 nM and 25 nM, respectively.

Regarding `Cc1cnc2ccc(-c3nc(C(=O)NC[C@@H]4CCCN4C)c(N)nc3-c3ccc(F)cc3)cn12` [Example 139, (S)-3-amino-5-(4-fluorophenyl)-6-(3-methylimidazo[1,2-a]pyridin-6-yl)-N-((1-methylpyrrolidin-2-yl)methyl) pyrazine-2-carboxamide], the IC50 in assay [1] was 932 nM; in assay [2], 66 nM.

As to `Cc1cnc2ccc(-c3nc(C(=O)NC(C)C4CCCO4)c(N)nc3-c3ncco3)cn12` (single isomer, unassigned; isomer 1) [Example 266, 3-amino-6-(3-methylimidazo[1,2-a]pyridin-6-yl)-5-(oxazol-2-yl)-N-(1-(tetrahydrofuran-2-yl)ethyl)pyrazine-2-carboxamide (isomer 1)], the IC50 in assay [3] was above 10000 nM; in assay [4], 7.6 nM.

Take `Cc1cnc2ccc(-c3nc(C(=O)NCc4cccc(N5CCC(N(C)C)C5)n4)c(N)nc3-c3ncco3)cn12` (single isomer, unassigned) [Cmpd. 235, 3-amino-N-((6-(3-(dimethylamino)pyrrolidin-1-yl)pyridin-2-yl)methyl)-6-(3-methylimidazo[1,2-a]pyridin-6-yl)-5-(oxazol-2-yl)pyrazine-2-carboxamide]: the IC50 in assay [3] was found to be 5180 nM; in assay [4], 0.8 nM.

As for `Cc1cnc2ccc(-c3nc(C(=O)NC(C)C4CCCO4)c(N)nc3-c3ncco3)cn12` (single isomer, unassigned; isomer 3) [Example 274, 3-amino-6-(3-methylimidazo[1,2-a]pyridin-6-yl)-5-(oxazol-2-yl)-N-(1-(tetrahydrofuran-2-yl)ethyl)pyrazine-2-carboxamide (isomer 3)], the IC50 was 275 nM in assay [3] and 0.9 nM in assay [4].

Consider `Cc1cnc2ccc(-c3nc(CNC(=O)[C@@H]4CCCO4)c(N)nc3-c3ccc(F)cc3)cn12` [Example 265, (S)-N-((3-amino-5-(4-fluorophenyl)-6-(3-methylimidazo[1,2-a]pyridin-6-yl)pyrazin-2-yl)methyl)tetrahydrofuran-2-carboxamide], for which the IC50 in assay [3] came out at 26 nM; in assay [4], 7.3 nM.

Regarding `Cc1cnc2ccc(-c3nc(C(=O)NC(C)C4CCCO4)c(N)nc3-c3ncco3)cn12` (single isomer, unassigned; isomer 2) [Example 262, 3-amino-6-(3-methylimidazo[1,2-a]pyridin-6-yl)-5-(oxazol-2-yl)-N-(1-(tetrahydrofuran-2-yl)ethyl)pyrazine-2-carboxamide (isomer 2)], the figures for the IC50 in assay [3] and in assay [4] were 11600 nM and 12 nM, respectively.

Consider `CNCCOc1cccnc1CNC(=O)c1nc(-c2ccc3ncn(C)c3c2)c(-c2ccc(F)cc2)nc1N` [Example 115, 3-amino-5-(4-fluorophenyl)-6-(1-methyl-1H-1,3-benzodiazol-6-yl)-N-([3-[2-(methylamino)ethoxy]pyridin-2-yl]methyl)pyrazine-2-carboxamide], for which the figures for the IC50 in assay [1] and in assay [2] were 596 nM and 12 nM, respectively.

As for `Cc1cnc2ccc(-c3nc(CNC(=O)C4CCCO4)c(N)nc3-c3ccc(F)cc3)cn12` (stereo in doubt) [Cmpd. 268, (2S)—N-[[3-amino-5-(4-fluorophenyl)-6-[3-methyl-imidazo-[1,2-a]pyridin-6-yl]pyrazin-2-yl]methyl]oxolane-2-carboxamide], the IC50 in assay [3] was found to be 6.7 nM; in assay [4], 0.2 nM.

These data come from patent US10898481B2 (priority 2018, dated 2021).
